15 compounds from patent US20190022225A1, “PROTOCOL FOR INCREASING LIFE EXPECTANCY IN A TEST SUBJECT” (Mayo Foundation for Medical Education and Research, priority 2015, published 2019) can be followed below.

Broadly, the IC50 is the concentration at which inhibition is half-maximal. For orientation: EC50 means the concentration that produces a half-maximal response.

Entries after “also recorded” stand apart in the source; their conditions may differ. Read-outs that look alike come from different tables or passages of the source.

Data set [1] has as its system senescent (irradiated) IMR90 cells. As to the kind of experiment: CellTiter-Glo cell viability assay, senescent IMR90. It is filed as cell-based, human. Here is the method:
(§1) To determine whether ABT-263 is selectively toxic to senescent cells compared to non-senescent cells, a cell viability assay was used to assess cell survival following treatment with ABT-263. IMR90 cells (human primary lung fibroblasts (IMR90) (IMR-90 (ATCC® CCL-186™, Mannassas, Va.) were seeded in six well plates, and cells were induced to senescence with 10 Gy of ionizing radiation (IR) (Day 0). The media was refreshed every 3 days. The senescent phenotype is allowed to develop for 7 days at which point a cell count was made to determine the baseline number of cells followed by seeding into 96-well plates. On day 8, the senescent cells (irradiated) and the non-senescent cells (the non-radiated cells), were exposed to serial dilutions of ABT-263 for a period of 3 days. ABT-263 concentrations ranged from 0.5 nM to 3 μM. Each condition was seeded in triplicate.
(§2) After three days of treatment (Day 11), cells were assayed for cell survival using the commercially available CellTiter-Glo® (CTG) Luminescent Cell Viability Assay (Promega Corporation, Madison, Wis.). The assay determines the number of viable cells in culture based on the quantitation of ATP present which is an indicator of metabolically active cells.
(§3) The experiments performed for assessing the effect of these other Bcl-2 inhibitors were performed essentially as described in Example 7. Cells were exposed to ABT-199 at serial dilution concentrations ranging from 15 nM to 100 μM (FIGS. 26 and 27). Cells were exposed to Obatoclax at concentrations ranging from 1.4 nM to 9 μM (FIG. 28).
(§4) The effect of ABT-263 in combination with the Akt inhibitor MK-2206 was tested for selective toxicity of senescent cells compared to non-senescent cells in IMR90 cells. The methods of Example 7 were repeated except that cell cultures were exposed to 10 nM MK-2206 (Selleckem, Cat# S1078) in addition to serial dilutions of ABT-263.
On the technique in general: ATP-based viability assays read luminescence as a measure of living cells.

Data set [2] relates to non-senescent IMR90 cells. As to the kind of experiment: CellTiter-Glo cell viability assay, non-senescent IMR90. Conditions: Homo sapiens, IMR-90, 72 h, IMR90, 3 days. It is filed as cell-based. Here is the method:
as §1, §2, §3, §4

The next data set has as its system Senescent cells (SnC). As to the kind of experiment: Cell survival EC50 of MDM2 inhibitors, senescent cells. Conditions: for EC50: read-out: Cell survival data EC50 SnC.
In data set [3] the test system is quiescent high density non senescent cells (HD NsC). As to the kind of experiment: Cell survival EC50 of MDM2 inhibitors, quiescent high density non senescent cells. Particulars: read-out: Cell survival data EC50 HD NsC.
A further data set deals with p16-3MR mice. As to the kind of experiment: Senescence induced by chemotherapeutic drugs in p16-3MR mice (luminescence, skin mRNA). It is filed as in vivo, mouse. Conditions: for level of senescent cells (luminescence): p<0.05. Here is the method: Paclitaxel induces senescence and SASP in p16-3MR transgenic mice. Groups of mice (n=4) were treated three times every two days with 20 mg/kg paclitaxel or vehicle. […] The level of mRNA in skin was determined for each of the target genes: p16, 3MR transgene, and IL-6.
To examine senescence induced by different chemotherapeutic drugs, groups of p16-3MR animals (n=4) were treated with thalidomide (100 mg/kg; 7 daily injections); romidepsin (1 mg/kg; 3 injections); pomalidomide (5 mg/kg; 7 daily injections); lenalidomide (50 mg/kg; 7 daily injections); 5-azacytidine (5 mg/kg; 3 injections) and compared with doxorubicin (10 mg/kg, 2-4 injections over 7 days).

With `CC1(C)CCC(CN2CCN(c3ccc(C(=O)NS(=O)(=O)c4ccc(NCC5CCOCC5)c([N+](=O)[O-])c4)c(Oc4cnc5[nH]ccc5c4)c3)CC2)=C(c2ccc(Cl)cc2)C1` [ABT-199, 4-[4-[[2-(4-Chlorophenyl)-4,4-dimethylcyclohex-1-en-1-yl]methyl]piperazin-1-yl]-N-[[3-nitro-4-[[(tetrahydro-2H-pyran-4-yl)methyl]amino]phenyl]sulfonyl]-2-[(1H-pyrrolo[2,3-b]pyridin-5-yl)oxy]benzamide], the concentration for half-maximal inhibition (IC50) is 6.9 to 12.4 µM in data set [1] (Homo sapiens, IMR-90, 72 h, IMR90, 3 days, read-out: IC50 in senescent cells) and 6 to 15.8 µM in data set [2] (CellTiter-Glo, read-out: IC50 on non-senescent cells). The “selective targeting of senescent cells over non-senescent cells” value in data set [1] (IMR90) is given as “inability”.

In the case of `CC(C)[C@@H](CS(=O)(=O)C(C)C)N1C(=O)[C@@](C)(CC(=O)O)C[C@H](c2cccc(Cl)c2)[C@H]1c1ccc(Cl)cc1` [AMG-232, 2-((3R,5R,6S)-5-(3-chlorophenyl)-6-(4-chlorophenyl)-1-((S)-1-(isopropylsulfonyl)-3-methylbutan-2-yl)-3-methyl-2-oxopiperidin-3-yl)acetic acid], in the data set with Senescent cells (SnC), the “EC50 dose ratio HD NsC/SnC” value amounted to 1.2 and the EC50 was found to be 3.4 µM. Moreover, the EC50 in data set [3] stood at 4.1 µM.

Regarding `O=C(/C=C/c1ccc(I)cc1)c1ccc(B(O)O)cc1` [Boronate, trans-4-Iodo, 4′-boranyl-chalcone], in the data set on Senescent cells (SnC), the “EC50 dose ratio HD NsC/SnC” value is listed as 14.1, the “selectivity for senescent cells over quiescent cells” value (from here on “selectivity for senescent cells”) was “particularly high selectivity” and the EC50 is 10.8 µM. Further, the “selectivity for senescent cells” value in the data set on Senescent cells (SnC) (listed as boronate) is recorded as “high specificity”. For the same compound, the EC50 in data set [3] stood at 153 µM.

With `O=C1c2c(c(-c3ccccc3)nn2Cc2ccccc2)C(c2ccc(Br)cc2)N1CCCn1ccnc1` (centres unmarked) [CAY10681, 4-(4-bromophenyl)-4,5-dihydro-5-[3-(1H-imidazol-1-yl)propyl]-3-phenyl-1-(phenylmethyl)-pyrrolo[3,4-c]pyrazol-6(1H)-one], in the data set on Senescent cells (SnC), the “EC50 dose ratio HD NsC/SnC” value is recorded as 1.6. The EC50 was 11 µM in the data set with Senescent cells (SnC) and 17.6 µM in data set [3].

For `O=C1c2c(c(-c3ccccc3)nn2Cc2ccc(F)cc2)C(c2ccc(Br)cc2)N1CCCn1ccnc1` (centres unmarked) [CAY10682, 4-(4-bromophenyl)-1-[(4-fluorophenyl)methyl]-4,5-dihydro-5-[3-(1H-imidazol-1-yl)propyl]-3-phenyl-pyrrolo[3,4-c]pyrazol-6(1H)-one], in the data set with Senescent cells (SnC), the “EC50 dose ratio HD NsC/SnC” value was 1.3 and the EC50 was 11.2 µM. Also, the EC50 in data set [3] turned out to be 14.3 µM.

For `c1ccc2c(CCNc3ccc(Nc4ccncc4)cc3)c[nH]c2c1` [JNJ 26854165, N1-(2-(1H-indol-3-yl)ethyl)-N4-(pyridin-4-yl)benzene-1,4-diamine], in the data set on Senescent cells (SnC), the “EC50 dose ratio HD NsC/SnC” value is recorded as 6.5, the “selectivity for senescent cells” value is listed as “high specificity; also recorded: particularly high selectivity” and the EC50 was 1 µM. In addition, the EC50 in data set [3] came to 6.6 µM.

Turning to `CCCCn1c(=O)[nH]c(O)c(C2NCCc3c2[nH]c2ccccc32)c1=O` (centres unmarked) [MEL23, 3-Butyl-6-hydroxy-5-(2,3,4,9-tetrahydro-1H-pyrido[3,4-b]indol-1-yl)pyrimidine-2,4(1H,3H)-dione], in the data set on Senescent cells (SnC), the “EC50 dose ratio HD NsC/SnC” value was 5.2 and the EC50 came to 4 µM. Moreover, the “selectivity for senescent cells” value in the data set with Senescent cells (SnC) (listed as Me123) was “high specificity; also recorded: particularly high selectivity”. For the same compound, the EC50 in data set [3] was 20.9 µM.

Regarding `Cn1c(=O)c([N+](=O)[O-])c(Cl)c2ccccc21` [ML214], the “level of killing of senescent cells versus non-senescent cells” value in data set [1] (irradiated and non-senescent IMR90) is on record as “comparable to the level of killing of non-senescent cells”.

For the compound `COC1=CC(c2cc3ccccc3[nH]2)=N/C1=C\c1[nH]c(C)cc1C` [Obatoclax], the IC50 in data set [2] (read-out: IC50 in non-senescent cells) was 0.075 µM.

With `COc1cc(C(=O)O)ccc1NC(=O)[C@@H]1N[C@@H](CC(C)(C)C)[C@](C#N)(c2ccc(Cl)cc2F)[C@H]1c1cccc(Cl)c1F` [RG7388, 4-[[(2R,3S,4R,5S)-3-(3-chloro-2-fluorophenyl)-4-(4-chloro-2-fluorophenyl)-4-cyano-5-(2,2-dimethylpropyl)pyrrolidine-2-carbonyl]amino]-3-methoxybenzoic acid], in the data set with Senescent cells (SnC), the “EC50 dose ratio HD NsC/SnC” value amounted to 1.0 and the EC50 was determined as 32.8 µM. The EC50 in data set [3] turned out to be 31.5 µM.

Consider `OCc1ccc(-c2ccc(-c3ccc(CO)s3)o2)s1` [RITA, 5,5′-(2,5-Furandiyl)bis-2-thiophenemethanol], for which, in the data set with Senescent cells (SnC), the “EC50 dose ratio HD NsC/SnC” value is on record as 0.9 and the EC50 worked out at 254 µM. The EC50 in data set [3] is 223 µM.

In the case of `COc1cccc2c1C(=O)c1c(O)c3c(c(O)c1C2=O)C[C@@](O)(C(=O)CO)C[C@@H]3O[C@H]1C[C@H](N)[C@H](O)[C@H](C)O1` [doxorubicin], in the data set on p16-3MR mice, the “level of senescent cells (luminescence)” value was “significant levels of senescent cells”.

`Nc1cccc2c1CN(C1CCC(=O)NC1=O)C2=O` (centres unmarked) [lenalidomide]: the “level of senescent cells (luminescence)” value with p16-3MR mice was “significant levels of senescent cells”.

Take `Nc1cccc2c1C(=O)N(C1CCC(=O)NC1=O)C2=O` (centres unmarked) [omalidomide]: in the data set with p16-3MR mice, the “level of senescent cells (luminescence)” value is listed as “significant levels of senescent cells”.

For the compound `CC(=O)O[C@H]1C(=O)[C@@]2(C)[C@H]([C@H](OC(=O)c3ccccc3)[C@]3(O)C[C@H](OC(=O)[C@H](O)[C@@H](NC(=O)c4ccccc4)c4ccccc4)C(C)=C1C3(C)C)[C@]1(OC(C)=O)CO[C@@H]1C[C@@H]2O` [paclitaxel], in the data set on p16-3MR mice (20 mg/kg three times every two days), the “senescence shown by luminescence” value is recorded as “Senescence was observed”. The “levels of mRNA for p16, 3MR and IL-6 in skin” value in the data set on p16-3MR mice (20 mg/kg three times every two days, versus vehicle) is given as “increased”.
